Test results taken from US11234960B2, “Compositions and methods for improving mitochondrial function and treating neurodegenerative diseases and cognitive disorders” (Amazentis SA, priority 2010, dated 2022).

Key:
citrate synthase = assay: Citrate synthase activity in C2C12 myotubes; assay type: cell-based; details: 48 hr, punicalagin 1 or 10 μM, ellagic acid or urolithin 1, 10 or 50 μM (FIG. 4)
Procedure: The enzyme citrate synthase catalyzes the reaction between acetyl coenzyme A (acetyl CoA) and oxaloacetic acid to form citric acid. The acetyl CoA contributes 2 carbons to the 4 carbons of oxaloacetate, resulting in citrate with 6 carbons. The hydrolysis of the thioester of acetyl CoA results in the formation of CoA with a thiol group (CoA-SH). The activity of citrate synthase is measured via the reaction between the thiol of CoA-SH with the DTNB in the mixture to form 5-thio-2-nitrobenzoic acid (TNB). This yellow product (TNB) is observed spectrophotometrically by measuring absorbance at 412 nm (Citrate Synthase Assay Kit, Cat Number CS0720, Sigma Aldrich).
C2C12 myoblasts were differentiated into myotubes by serum deprivation for 4 days (Canto et al. (2009) Nature. 458:1056-60). Myotubes were incubated for 48 hr with punicalagin at a final concentration of 1 or 10 μM or with ellagic acid or urolithin at a final concentration of 1, 10 or 50 μM (all dissolved in DMSO, final concentration 0.1%). DMSO was used as a control (final concentration 0.1%). At the end of the treatment, cells were washed 3 times with PBS and assayed for citrate synthase activity according to manufacturer's instructions (Citrate Synthase Assay Kit, Cat Number CS0720, Sigma Aldrich).

HFD-fed C57BL6/J mice = assay: Oral glucose tolerance test in HFD-fed mice; assay type: in vivo; details: 10 weeks of treatment (FIG. 24)
Procedure: Mice in different treatment groups were administered (i) urolithin A mixed with food (food admix) to reach a dosing of 55 mg/kg body weight/day (mkd); (ii) ellagic acid mixed with food (food admix) to reach a dosing of 75 mkd; (iii) punicalagin (gavage) to reach a dosing of 90 mkd; or (iv) pomegranate extract (PE) (gavage) to reach a dosing of 140 mkd of total polyphenols. A typical pomegranate extract used in these experiments had the following composition: polyphenols, 140 mkd; punicalagin, 13.1 mkd; and ellagic acid, 13.2 mkd. For animals treated by gavage, gavage was performed daily (7 days/week) between 8:00 and 10:00 a.m.; compounds were mixed with saline solution (0.9% NaCl) and provided at a final volume of 5 mL/kg of body weight. Mice in high-fat control groups were fed with the same diet as the experimental animals. Mice in corresponding different control groups were administered either high-fat diet alone or high-fat diet plus daily gavage with vehicle (saline). Another control group of mice were fed standard chow diet alone.
Male C57BL6/J mice were grouped and treated as described in Example 7. In addition, glucose tolerance test (GTT) was performed for HFD-fed mice which developed glucose intolerance. Glucose tolerance test was monitored 10 weeks after the initiation of the treatment by Oral Glucose Tolerance Test (oGTT). Animals were fasted for 12 h (from 8 pm to 8 am) before oGTT. The day of the oGTT, a small drop of blood (<2 μL) was collected from the lateral tail vein and glycemia was monitored using a glucometer (AccuCheck Aviva, Roche Diagnosis). Each animal then received, at time 0, an oral dose of D-glucose at a dosing of 2 g/kg body weight. Glycemia was then monitored at times 15, 30, 45, 60, 90, 120, and 150 min after oral glucose load.

[1] = test system: C2C12 myotubes (PGC-1α, Tfam, PFKFB3, CPT1b, MCAD, LCAD, Ndufa2, Cyt c, Mfn2); assay: Mitochondrial gene expression by real time quantitative PCR in C2C12 myotubes; assay type: cell-based; details: 48 hr, 1, 10 or 50 μM, vs DMSO control (FIG. 3)
Procedure: To assess the effects of compounds on mitochondrial gene expression, C2C12 myoblasts were differentiated into myotubes by serum deprivation for 4 days (Cantó et al. (2009) Nature. 458:1056-60). Myotubes were incubated for 48 hr with ellagic acid or urolithin A at a final concentration of 1, 10 or 50 μM (all dissolved in DMSO, final concentration 0.1%). DMSO was used as a control (final concentration 0.1%). At the end of the treatment, cells were washed with phosphate buffered saline (PBS) and mRNA were immediately extracted according to manufacturer's instructions (Trizol Reagent, Invitrogen) by adding 1 mL of Trizol reagent. After extraction, cDNA were produced by reverse transcription according to manufacturer's instructions.
Assessment of the expression levels of genes (PGC-1α, Tfam, PFKFB3, CPT1b, MCAD, LCAD, Ndufa2, Cyt c, and Mfn2) which control the mitochondrial function was performed by real time quantitative PCR (Watanabe et al. (2004) J Clin Invest. 113:1408-18) by using the following set of primers (Fwd: forward primer; Rev: reverse primer): […]
PGC-1α (PPARγ-coregulator 1α) and Tfam (mitochondrial transcription factor A) are master regulators of the mitochondrial function, namely of mitochondrial biogenesis and mitochondrial phosphorylative oxidation (mOXPHOS). […]

SMILES | citrate synthase activity (citrate synthase) | glucose tolerance (oGTT, glycemia after 2 g/kg D-glucose) (HFD-fed C57BL6/J mice) | mitochondrial activity by expression of mitochondrial genes [1]
O=C1O[C@H]2[C@@H]3OC(=O)c4cc(O)c(O)c(O)c4-c4c(O)c(O)c5oc(=O)c6c(c(O)c(O)c7oc(=O)c4c5c76)-c4c(cc(O)c(O)c4O)C(=O)OC[C@H]3OC(O)[C@@H]2OC(=O)c2cc(O)c(O)c(O)c2-c2c1cc(O)c(O)c2O (mixture of isomers) [punicalagin, 2,3 hexahydroxydiphenoyl-4,6-gallagylglucose] | increase citrate synthase activity in a dose-dependent manner | improved glucose tolerance | 
O=c1oc2c(O)c(O)cc3c(=O)oc4c(O)c(O)cc1c4c23 [ellagic acid] | increase citrate synthase activity in a dose-dependent manner | improved glucose tolerance | increase mitochondrial activity in a dose-dependent manner
O=c1oc2cc(O)ccc2c2ccc(O)cc12 [urolithin A, 3,8-Dihydroxydibenzo-α-pyrone] | increase citrate synthase activity in a dose-dependent manner | improved glucose tolerance | increase mitochondrial activity in a dose-dependent manner
